Here are results for 13 compounds from the Bradley open melting point set (2014).

“And” between values parts separate entries of the source, which are not always exact repeats. Identical values can stand only once.

Usually melting point stands for the temperature, or range, at which the solid turns liquid. As to `O=C(C[C@H](NC(=O)OCc1ccccc1)C(=O)O)OCc1ccccc1` [N-benzyloxycarbonyl-l-aspartic acid 4-benzyl ester], the melting point amounted to 106 °C. Compound `CC1=C(/C=C/C(C)=C/C=C/C(C)=C/C=C/C=C(C)/C=C/C=C(C)/C=C/C2=C(C)CCCC2(C)C)C(C)(C)CCC1` [beta-carotene] displayed a melting point of 180 °C. Compound `CCOC(=O)c1cnn(-c2ccccc2)c1` [ethyl 1-phenyl-1h-pyrazole-4-carboxylate] came in with a melting point of 98 °C.

In turn, `NC(=O)/C=C\C(=O)O` [(2Z)-4-Amino-4-oxobut-2-enoic acid] had a melting point of 160 °C. As for `Cn1nnnc1S` [5-mercapto-1-methyltetrazole], the melting point is 127 °C. For `CCCCCCCCCCCCCC` [tetradecane], the melting point stood at 6 °C. Compound `O=C(O)c1cc(B(O)O)ccc1F` [3-carboxy-4-fluorobenzeneboronic acid] registered a melting point of 218 °C. On to `O=[N+]([O-])c1ccccc1O` [2-nitrophenol], for which the melting point was 44.8 °C and 44.5 °C and 44 °C. Consider `Cc1ncc([N+](=O)[O-])n1C` [dimetridazole], for which the melting point was found to be 140 °C. `C#CCCCCCC` [1-octyne]: the melting point was -79 °C. The value for `CC[C@H](C)C(=O)O[C@H]1C[C@H](O)C=C2C=C[C@H](C)[C@H](CC[C@@H](O)C[C@@H](O)CC(=O)O)[C@H]21` [Pravastatin] was 326 °C; that for `Cc1cc(C(=O)O)ccc1Cl` [4-chloro-3-methylbenzoic acid] was 214 °C; that for `C=C(c1ccccc1)c1ccccc1` [1,1-diphenylethene] was 8 °C.
